Reference: patent US11813277B2, “Methods and agents for modulating inflammation” (The Regents of the University of California, priority 2018, dated 2023)

How the values were obtained:
[1] = tested on: phosphate (Pi) transporter; experiment: Phosphate transporter assay (mitochondrial swelling); format: biochemical, rat; settings: 250 μM etomoxir, 100 μM NEM, 10 μM mersalyl
Experimental: Phosphate transport was measured by monitoring swelling of de-energized mitochondria in isotonic potassium phosphate medium based upon principles described by Coty, W. A. and Pedersen, P. L. (1975) Phosphate transport in rat liver mitochondria. Kinetics, inhibitor sensitivity, energy requirements, and labeled components. Mol Cell Biochem. 9, 109-24. As the phosphate carrier acts as electroneutral symporter with protons, the process is self-restricting due to generation of an opposing pH gradient. […] In the presence of nigericin, the proton fluxes cycle resulting in electro- and pH-neutral transport of potassium phosphate down its concentration gradient into the mitochondrial matrix, resulting in osmotic accumulation of water. Under these conditions, transport is limited by the activity of phosphate carrier, and can be recorded as mitochondrial swelling (a decrease in light scattering).
The measurements were performed in an LS-50B spectrofluorometer (Perkin-Elmer) at 540 nm. Assay medium contained 125 mM potassium phosphate, pH 7.2, 0.5 mM EGTA, and 2 μM rotenone. Mouse liver mitochondria (0.5 mg/ml) were treated with 250 μM etomoxir, 100 μM N-ethylmaleimide (NEM) (Klingenberg, M., Durand, R., and Guerin, B. (1974) Analysis of the reactivity of SH-reagents with the mitochondrial phosphate carrier. Eur J Biochem, 42, 135-150) or 10 μM mersalyl (Paradies, G. and Ruggiero, F. M. (1991) Effect of aging on the activity of the phosphate carrier and on the lipid composition in rat liver mitochondria. Arch Biochem Biophys. 284, 332-337) and the reaction was started with 5 μM nigericin. Typical traces from 3 experiments are shown. To establish the maximally swollen state of mitochondria, 80 μg/ml alamethicin was used.

[2] = tested on: M(IL-4) polarization of BMDMs; experiment: Flow cytometry of IL-4-associated cell surface markers in BMDMs; format: cell-based, mouse; settings: for number of cells positive for both CD206 and CD71: IL-4; for population of CD206+/CD71+ cells: oxidative phosphorylation inhibitors co-treated with IL-4
Experimental: (§1) For all gene expression and flow cytometry experiments described below, day 6 BMDM were plated at 3×10^5 cell/well in 12-well plates. The next day, cells were treated with appropriate compounds (and duration as indicated in figures and below) in DMEM supplemented with 5% FBS, 2 mM L-glutamine, 100 units/mL, 100 μg/mL penicillin/streptomycin, 500 μM of sodium pyruvate and 5% v/v conditioned media containing macrophage colony stimulating factor (M-CSF).
(§2) For flow cytometry experiments involving etomoxir (FIG. 1G, FIG. 2A, FIG. 2D, FIG. 3A, FIG. 3B, FIG. 3G, FIG. 3H): BMDMs were mock-treated (media replacement only) or treated with 20 ng/mL of IL-4±3 μM or 200 μM of etomoxir for 48 hr. When measuring expression of M(IL-4)-associated genes in response to etomoxir (FIG. 1H, FIG. 2B), BMDMs were mock-treated or treated with 20 ng/mL of IL4±etomoxir as indicated for 24 hr.
(§3) For experiments involving respiratory chain inhibitors: BMDMs were mock-treated (media replacement only) or treated with 20 ng/mL of IL4±1.2 μM oligomycin (Oligo), 200 nM rotenone (Rot), 200 nM antimycin A (AntiA), 100 nM piericidin A (PierA), or 5 μM carboxyatractylate (CAT) for either 24 (FIG. 4G, FIG. 4H, FIG. 6G) or 48 hr (FIG. 4F, FIG. 7D). All inhibitors were given as co-treatments simultaneously with IL-4.
For experiments involving CoA supplementation (FIG. 10A, FIG. 10B, FIG. 10C, FIG. 10D, FIG. 10E, FIG. 9C, FIG. 9D): BMDMs were mock-treated (media replacement only) or treated with 20 ng/mL of IL4±etomoxir (concentration indicated in figures)±CoA (concentration indicated in figures) for 48 hr. Etomoxir and CoA were given as co-treatments simultaneously with IL-4.
Prior to FACS analysis, BMDMs were detached using 350 μL of Accutase, followed by two washes with FACS buffer (PBS+1% (v/v) BSA+0.05% (w/v) sodium azide). Anti-mouse CD16/32 antibody was used at a dilution of 1:500, while all other antibodies were used at a dilution of 1:250. All flow cytometry data were captured using BD FACSVerse flow cytometer and analyzed using the FlowJo X 10.0.7r2 software. In all, 2×104 live events were acquired for each sample (gated on DAPIneg). For analysis, CD206+/CD71+ and CD206+/CD301+ populations were gated based on Fluorescence Minus One (FMO) controls.

[3] = tested on: Relma, Mgl2, Ym1, Fabp4, Arg1 expression; experiment: qPCR of IL-4-associated genes in BMDMs; format: cell-based, mouse; settings: for IL-4-induced expression of Relma, Ym1, Mgl2: electron transport chain inhibitors
Experimental: as §1, §2, §3
RNA was isolated with TRIzol, then cDNA was synthesized with high-capacity cDNA reverse transcription kit. KAPA SYBR FAST qPCR Master Mix kit and a LightCycler 480 were used for quantitative RT-PCR. Fold change related to the control group was calculated using […] with 36b4 as the reference gene.

[4] = tested on: BMDMs; experiment: Basal mitochondrial respiration in intact BMDMs; format: cell-based, mouse; settings: 1.2 μM oligomycin, 200 nM rotenone, 200 nM antimycin A, 100 nM piericidin A, 5 μM CAT
Experimental: All respirometry studies were conducted in either a Seahorse XF96 or XFe96 Analyzer. All experiments were conducted at 37° C., and at pH 7.4 (intact cells) or 7.2 (permeabilized cells and isolated mitochondria). Calculation of respiratory parameters was made according to standard protocols (Divakaruni, A. S., Paradyse, A., Ferrick, D. A., Murphy, A. N., and Jastroch, M. (2014a) Analysis and interpretation of microplate-based oxygen consumption and pH data. Meth. Enzym 547, 509-54), and all rates were corrected for non-mitochondrial respiration/background signal by subtracting the oxygen consumption rate insensitive to rotenone plus antimycin A.
Respiration in intact BMDMs was measured in medium containing 8 mM glucose, 2 mM glutamine, 2 mM pyruvate, and 5 mM HEPES. Cells were plated at 5.0×10^4 cells/well and assayed after 48 hr. When measuring the response to IL-4, cells were treated with 20 ng/mL of IL-4 24 hr. after initial plating, and respiration was measured the following day (˜48 hr after initial seeding). […]

[5] = tested on: adenine nucleotide translocase (ANT); experiment: ATP hydrolysis in isolated mitochondria, intact or alamethicin-permeabilized; format: biochemical, rat
Text: ATP hydrolysis in isolated mitochondria (McQuaker, S. J., Quinlan, C. L., Caldwell, S. T., Brand, M. D., and Hartley, R. C. (2013). A prototypical small molecule modulator uncouples mitochondria in response to endogenous hydrogen peroxide production. Chembiochem. 14, 993-1000; Divakaruni, A. S., Andreyev, A. Y., Rogers, G. W., and Murphy, A. N. (2017a) In situ measurements of mitochondrial matrix enzyme activities using plasma and mitochondrial membrane permeabilization agents. Anal. Biochem. 17, 30385-8) was performed in MAS buffer, and stimulated by respiratory chain inhibition (1 μM rotenone and 2 μM antimycin A) followed by addition of excess ATP (25 mM) and uncoupler (1 μM FCCP). Hydrolysis was inhibited by injection of either oligomycin (3 ng/mg mitochondrial protein) or carboxyatractylo side (7.5 ng/mg mitochondrial protein). Rates of extracellular acidification (ECAR, in mpH/min) were converted to proton production rates (PPR, in pmol H+/min) by determining the buffer capacity with sequential injections of HCl and H2SO4 (Mookerjee, S. A., Goncalves, R. L., Gerencser, A. A., Nicholls, D. G., and Brand, M. D. (2015). The contributions of respiration and glycolysis to extracellular acid production. Biochim et Biophys Acta. 1847, 171-81). 10 μg/mL alamethicin was used to permeabilize the mitochondrial inner membrane (1 μg/mg mitochondrial protein).

[6] = tested on: LCFA oxidation in BMDMs; experiment: 9,10-3H-palmitate oxidation (3H2O release) in BMDMs; format: cell-based, mouse; settings: 200 nM rotenone or 200 nM antimycin A, IL-4-stimulated
Experimental: BMDMs at day 6 of differentiation were seeded at 3×10^5 cells/well in 12 well plates in BMDM media. The next day, cells were treated in DMEM containing 25 mM glucose supplemented with 5% FBS, 2 mM L-Glutamax, 100 units/mL, 100 μg/mL penicillin/streptomycin, 1 mM of sodium pyruvate, 1 mM carnitine, and 5% v/v conditioned media containing macrophage colony stimulating factor (M-CSF) under one of 5 conditions: control, 20 ng/mL of IL-4±3 μM or 200 μM of etomoxir, or 200 nM rotenone, or 200 nM antimycin A for 24 hr. Fatty acid oxidation was measured 24 hours later as previously described (Rognstad, R. (1991) Estimation of peroxisomal and mitochondrial fatty acid oxidation in rat hepatocytes using tritiated substrates. Biochem J 279:147-150, 1991; Cha, B. S., Ciaraldi, T. P., Park, K. S., Carter, L., Mudaliar, S. R., and Henry R R. (2005) Impaired fatty acid metabolism in type 2 diabetic skeletal muscle cells is reversed by PPARgamma agonists. Am J Physiol Endocrinol Metab. 289, E151-9) following a fluid change to DMEM with components as described above except 10 mM glucose and 0.2 μCi (final concentration of 5 μM) BSA-conjugated [9,10-3H]palmitic acid. No additional IL-4 was added at the time of this fluid change, but etomoxir, rotenone and antimycin A were added, and the plates were placed in a […] incubator at 37° C. for 3 hr. After incubation, a 100 μL aliquot of the culture medium was passed over an ion-exchange resin, and the column was washed twice with 0.75 ml of water. Free fatty acids were retained by the resin, whereas the tritium hydrolyzed from radiolabeled palmitate catabolism was released as labeled water, which passes freely through the resin, and is subsequently counted for radioactivity. All data are corrected for protein content in each well. There were 3 technical replicates for each condition, and 4 biological replicates arising from 4 separate animals.

[7] = alamethicin-permeabilized mitochondria
[8] = intact isolated mitochondria, etomoxir 100 μM, CAT 7.5 ng/mg, oligomycin 3 ng/mg

**Q.** How did the “Pi transporter activity (rate of swelling)” value [1] turn out when `CCN1C(=O)C=CC1=O` [N-ethyl maleimide, N-ethylmaleimide] was run?
**A.** Its value is “inhibited the rate of swelling”.

**Q.** Which results are given for `CC(=O)SCCNC(=O)CCNC(=O)[C@H](O)C(C)(C)COP(=O)(O)OP(=O)(O)OC[C@H]1O[C@@H](n2cnc3c(N)ncnc32)[C@H](O)[C@@H]1OP(=O)(O)O` [acetyl CoA]?
**A.** number of cells positive for both CD206 and CD71 ([2]; 500 μM acetyl CoA): cannot reproduce the effect of CoA; number of cells positive for both CD206 and CD71 ([2]; acetyl CoA with CoA, both 500 μM): counteracts the effect of CoA; expression of Arg1, Mgl2 and Fabp4 ([3]; 500 μM acetyl CoA): different effects than CoA

**Q.** With `C=C1[C@@H]2CC[C@H]3[C@]4(C)C[C@H](O[C@@H]5O[C@H](CO)[C@@H](OS(=O)(=O)O)[C@H](OS(=O)(=O)O)[C@H]5OC(=O)CC(C)C)CC(C(=O)O)(C(=O)O)[C@H]4CC[C@]3(C2)[C@H]1O` [carboxyatractyloside] as the compound, how does the “population of CD206+/CD71+ cells” value [2] read?
**A.** The value was “none of the inhibitors of ATP synthesis or the electron transport chain significantly lowered”.

**Q.** And the “respiration at 24 hr” value [4]?
**A.** Its value is “strongly reduced respiration”.

**Q.** What about the ATP hydrolysis [5, 7] of the same compound?
**A.** Its ATP hydrolysis is “no effect”.

**Q.** And the ATP hydrolysis [5, 8]?
**A.** The ATP hydrolysis was “inhibited ATP hydrolysis”.

**Q.** With `COC(CNC(=O)c1ccccc1OCC(=O)O)[CH2][Hg][OH]` (stereo not drawn) [mersalyl] as the compound, how does the “Pi transporter activity (rate of swelling)” value [1] read?
**A.** Its value is “inhibited the rate of swelling”.

**Q.** With `CC[C@H]1/C=C/C=C/C[C@@H](C)[C@H](O)[C@@](C)(O)C(=O)[C@@H](C)[C@H](O)[C@@H](C)C(=O)[C@@H](C)[C@H](O)[C@@H](C)/C=C/C(=O)O[C@@H]2[C@H](C)[C@H](CC1)O[C@]1(CC[C@H](C)[C@H](C[C@@H](C)O)O1)[C@H]2C` [oligomycin] as the compound, how does the “population of CD206+/CD71+ cells” value [2] read?
**A.** Its value is “none of the inhibitors of ATP synthesis or the electron transport chain significantly lowered”.

**Q.** What about the “respiration at 24 hr” value [4] of the same compound?
**A.** Its value is “strongly reduced respiration”.

**Q.** And the ATP hydrolysis [5, 7]?
**A.** Its ATP hydrolysis is “remained inhibitory”.

**Q.** What about the ATP hydrolysis [5, 8] of the same compound?
**A.** Its ATP hydrolysis is “inhibited ATP hydrolysis”.

**Q.** Which results are given for `C/C=C(\C)[C@H](O)[C@H](C)/C=C(C)/C=C/C/C(C)=C/Cc1nc(OC)c(OC)c(O)c1C` [piericidin A]?
**A.** population of CD206+/CD71+ cells [2]: none of the inhibitors of ATP synthesis or the electron transport chain significantly lowered; respiration at 24 hr [4]: strongly reduced respiration; IL-4-induced expression of Relma, Ym1, Mgl2 ([3]; IL-4, 24 hr): failed to reduce; expression of Ym1 and Arg1 ([3]; mitochondrial inhibitors, IL-4, 24 hr): increased expression

**Q.** For antimycin A, which “population of CD206+/CD71+ cells” value [2] is on record?
**A.** Its value is “none of the inhibitors of ATP synthesis or the electron transport chain significantly lowered”.

**Q.** What about the “3H2O release from 9,10-3H-palmitate” value [6] of the same compound?
**A.** The value was “suppressed LCFA oxidation to levels in line with 200 μM etomoxir”.

**Q.** What about the “respiration at 24 hr” value [4] of the same compound?
**A.** Its value is “strongly reduced respiration”.

**Q.** And the “IL-4-induced expression of Relma, Ym1, Mgl2” value ([3]; IL-4, 24 hr)?
**A.** The value was “failed to reduce”.
